Test results published in PubChem BioAssay (NCI).
“And” between values parts separate entries of the source, which are not always exact repeats. Equal values may be shown once.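 Tested at 5 concentrations; 48 h exposure; 96-well plates; endpoints linearly interpolated, else capped at highest concentration. The concentration for 50% growth inhibition is given as GI50. TGI is the concentration that stops growth completely.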

Legend:
Assay in all cases: inhibition of tumour cell growth, NCI panel, 48 h
[1] = tested on: A498 renal
[2] = tested on: HOP-92 NSCLC
[3] = tested on: HT29 colon
[4] = tested on: LOX IMVI melanoma
[5] = tested on: NCI-H522 lung
[6] = tested on: OVCAR-8 ovarian
[7] = tested on: SF-268 CNS
[8] = tested on: SK-MEL-5 melanoma
[9] = tested on: SNB-75 CNS
[10] = tested on: RXF 393 renal

| SMILES | TGI [1] | TGI [2] | TGI [3] | TGI [4] | TGI [5] | TGI [6] | TGI [7] | TGI [8] | TGI [9] | GI50 [1] | GI50 [2] | GI50 [3] | GI50 [4] | GI50 [5] | GI50 [6] | GI50 [9] | TGI [10] | GI50 [10] | GI50 [7] | GI50 [8] |
| --- | --- | --- | --- | --- | --- | --- | --- | --- | --- | --- | --- | --- | --- | --- | --- | --- | --- | --- | --- | --- |
| Cc1cccc(N2C(=O)C(=O)C(c3nc4ccccc4s3)C(=O)C2=O)c1C | > 100 µM | > 100 µM | > 100 µM | > 100 µM | > 100 µM | > 100 µM | > 100 µM | > 100 µM | > 100 µM | – | – | – | – | – | – | – | – | – | – | – |
| COc1cc2c3c(n(CCCNCCN4CCOCC4)c(=O)c2cc1OC)-c1cc2c(cc1C3=O)OCO2 | 11.4 µM and 35.8 µM | 12.4 µM and 3.92 µM | 50 µM and > 100 µM | 3.34 µM | > 100 µM | 17.4 µM | 8.09 µM and > 65.8 µM | 7.74 µM and 20.2 µM | 50 µM and 9.87 µM | 4.1 µM and 16 µM | 5.79 µM and 1.26 µM | 2.2 µM and 1.78 µM | 1.04 µM | 2.15 µM | 4.37 µM | 13.6 µM and 3.69 µM | – | – | – | – |
| COc1ccc(CCC2NCCc3cc(OC)c(OC)cc32)cc1 (centres undefined) | > 100 µM | – | > 100 µM | – | > 100 µM | > 100 µM | > 100 µM | > 100 µM | > 100 µM | – | – | – | – | – | – | – | – | – | – | – |
| CC1=N/C(=C\c2cccc3ccccc23)C(=O)O1 | > 100 µM | > 100 µM | > 100 µM | – | > 100 µM | > 100 µM | > 100 µM | > 100 µM | – | – | – | – | – | – | – | – | > 100 µM | – | – | – |
| Cn1cnc([N+](=O)[O-])c1Sc1nnc(C(F)(F)F)n1C | > 100 µM | 34.7 µM | > 100 µM | 30.5 µM | 23.9 µM | 67.8 µM | > 100 µM | > 100 µM | > 100 µM | – | – | – | – | – | – | – | – | – | – | – |
| CCCCC#Cc1cccc(=O)o1 | 66.1 µM | > 100 µM | > 100 µM | – | > 100 µM | > 100 µM | > 100 µM | 26.6 µM | – | 9.83 µM | 15.3 µM | 7.03 µM | – | 7.16 µM | > 100 µM | – | > 100 µM | 44.3 µM | > 100 µM | 3.71 µM |
| CCCCCCCCCC(=O)N[C@H]1CCc2cc(OC)c(OC)c(OC)c2-c2ccc(SC)c(=O)cc21 | 0.0596 µM | 0.0788 µM | 0.0645 µM | – | – | – | – | 0.0826 µM | – | – | – | – | – | – | – | – | 0.0551 µM | – | – | – |
| CCOC(=O)C1(C(=O)OCC)CC=C(C)CC12C(=O)Nc1ccccc12 (centres undefined) | > 100 µM | > 100 µM | > 100 µM | > 100 µM | > 100 µM | > 100 µM | > 100 µM | > 100 µM | > 100 µM | – | – | – | – | – | – | – | – | – | – | – |
